Experimental data as given in EP0307071B1, “Flavor and fragrance enhancing enzymes” (YISSUM RESEARCH DEVELOPMENT COMPANY OF THE HEBREW …, priority 1987, dated 1989).
Read-outs that look alike come from different tables or passages of the source.

Target: T1, Aspergillus niger B1 endo-β-glucosidase B1 (strain CMI CC 324626) preparation (Aspergillus niger, UniProt A2RAL4)
T1 sequence (A2RAL4 20-860): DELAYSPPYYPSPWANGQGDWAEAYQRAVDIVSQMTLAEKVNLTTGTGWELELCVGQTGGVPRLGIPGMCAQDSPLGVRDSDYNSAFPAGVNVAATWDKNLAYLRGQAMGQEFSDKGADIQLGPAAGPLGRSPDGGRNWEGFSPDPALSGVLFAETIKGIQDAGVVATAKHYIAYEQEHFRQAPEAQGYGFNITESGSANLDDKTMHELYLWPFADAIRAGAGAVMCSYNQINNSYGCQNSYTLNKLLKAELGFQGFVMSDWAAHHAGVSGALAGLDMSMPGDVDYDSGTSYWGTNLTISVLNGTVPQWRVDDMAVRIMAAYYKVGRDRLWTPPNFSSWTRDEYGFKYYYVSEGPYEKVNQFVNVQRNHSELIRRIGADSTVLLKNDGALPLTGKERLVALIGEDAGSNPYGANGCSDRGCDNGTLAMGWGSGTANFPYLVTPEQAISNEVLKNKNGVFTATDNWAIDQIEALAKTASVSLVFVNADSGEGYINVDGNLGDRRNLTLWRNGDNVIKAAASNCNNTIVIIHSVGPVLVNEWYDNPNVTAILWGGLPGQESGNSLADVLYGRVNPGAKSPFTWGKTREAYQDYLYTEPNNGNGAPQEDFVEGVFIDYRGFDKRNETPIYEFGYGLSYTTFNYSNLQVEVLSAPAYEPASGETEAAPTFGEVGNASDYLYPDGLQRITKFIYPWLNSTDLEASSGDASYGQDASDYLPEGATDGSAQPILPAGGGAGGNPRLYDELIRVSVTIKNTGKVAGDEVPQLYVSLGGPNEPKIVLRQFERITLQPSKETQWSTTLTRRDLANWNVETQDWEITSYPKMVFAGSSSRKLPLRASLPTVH
Test: β-glucosidase kinetics and inhibition by standard procedures (PNPG or geranyl β rutinoside as substrates)
Format: biochemical, Aspergillus niger B1 strain CMI CC 324626
Details: remaining enzyme activity
Method: The concentrations of free and bound monoterpenes are preferably determined according to the method of Dimitriadis et. al. (Amer J. Enol. Vitic. 35:66-71 (1984) which reference is herein incorporated by reference). The activity of the endo-β-glucosidase of the present invention is preferably determined by standard methods using either PNPG or geranyl beta rutinoside as substrates.
The β-glucosidase activity was assayed by incubating 25 µl of enzyme preparation in 1 ml of 1 mM PNPG (p-nitrophenyl-β-D-glucopyranoside) for 2 minutes at 35°. The reaction was terminated by adding 200 µl of 1M Na2CO3 and the OD was read at 399 nm.
The supernatant and the filtered samples were then separately incubated with 20 ml of 1 mg/l of wine glycosides for 20 hours at 30°. Free monoterpenes were then analyzed according to Dimitriadis et al. (Amer J. Enol. Vitic. 35:66-71 (1984)). Characterization of the A. niger B1 β-glucosidase B1 activity included the determination of pH, ionic strength, temperature, and ethanol response curves, Km, Vmax and Ki for glucose, by standard procedures. In addition, the effect of various concentrations of grape juice (Muscat of Alexandria) sucrose, fructose and SO2 on the enzyme activity was determined by conventional methods. […]

O=C(CO)[C@@H](O)[C@H](O)[C@H](O)CO [Fructose, fructose] was tested. Which activity at 1 M (1M Fructose, read-out: Activity in the presence of 1M Fructose) did it give?
Its activity at 1 M is 90%.

How did the activity at 1 M (1M sucrose, read-out: Activity in the presence of 1M sucrose) turn out when OC[C@H]1O[C@@](CO)(O[C@H]2O[C@H](CO)[C@@H](O)[C@H](O)[C@H]2O)[C@@H](O)[C@@H]1O [sucrose] was run?
The activity at 1 M was 90%.

Which “Activity in the presence of 200ppm SO2” value (200ppm SO2) does the source give for SO2 here?
The value was 100%.
